Laboratory results reported in PubChem BioAssay (NCI).
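Dose response: 5 concentrations. Exposure: 48 h. Format: 96-well plates. Endpoint: linear interpolation; highest concentration if not reached. GI50 = concentration required for 50% inhibition of growth. TGI is the concentration that stops growth completely.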

Legend:
Assay in all cases: NCI tumour cell line growth inhibition, 48 h
[1] = test system: MOLT-4 leukemia
[2] = test system: MALME-3M melanoma
[3] = test system: SF-539 CNS
[4] = test system: MDA-MB-231 breast
[5] = test system: UACC-62 melanoma
[6] = test system: SNB-75 CNS
[7] = test system: HL-60(TB) leukemia
[8] = test system: K-562 leukemia
[9] = test system: RPMI-8226 leukemia
[10] = test system: SK-MEL-28 melanoma
[11] = test system: UO-31 renal
[12] = test system: TK-10 renal
[13] = test system: M14 melanoma
[14] = test system: COLO 205 colon
[15] = test system: SK-MEL-2 melanoma
[16] = test system: OVCAR-4 ovarian
[17] = test system: SK-OV-3 ovarian
[18] = test system: HOP-92 NSCLC
[19] = test system: MDA-MB-435
[20] = test system: SF-295 CNS
[21] = test system: NCI-H23 lung
[22] = test system: CAKI-1 renal
[23] = test system: KM12 colon
[24] = test system: HT29 colon
[25] = test system: BT-549 breast
[26] = test system: CCRF-CEM leukemia
[27] = test system: SR leukemia
[28] = test system: MCF7 breast
[29] = test system: OVCAR-5 ovarian
[30] = test system: HOP-62 NSCLC
[31] = test system: T-47D breast
[32] = test system: PC-3 prostate
[33] = test system: DU-145 prostate
[34] = test system: HCT-15 colon
[35] = test system: SK-MEL-5 melanoma
[36] = test system: U251 CNS
[37] = test system: IGROV1 ovarian
[38] = test system: UACC-257 melanoma
[39] = test system: NCI-H226 lung
[40] = test system: NCI/ADR-RES ovarian
[41] = test system: ACHN renal
[42] = test system: HCC-2998 colon
[43] = test system: SW-620 colon
[44] = test system: HS 578T breast
[45] = test system: SN12C renal
[46] = test system: NCI-H460 lung

COc1ccc(-c2ccc(-c3ccc(C(=N)N)c(F)c3)s2)cc1
GI50 [1]: 495 nM
TGI [1]: 1870 nM
GI50 [2]: 2290 nM
TGI [2]: 4700 nM
GI50 [3]: 793 nM
TGI [3]: 2630 nM
GI50 [4]: 215 nM
TGI [4]: 515 nM
GI50 [5]: 1800 nM
TGI [5]: 3700 nM
GI50 [6]: 1620 nM
TGI [6]: 3310 nM
GI50 [7]: 215 nM
TGI [7]: 462 nM
GI50 [8]: 216 nM
TGI [8]: 573 nM
GI50 [9]: 369 nM
TGI [9]: 1800 nM
GI50 [10]: 1510 nM
TGI [10]: 3190 nM
GI50 [11]: 1010 nM
TGI [11]: 2720 nM
GI50 [12]: 720 nM
TGI [12]: 1910 nM
GI50 [13]: 651 nM
TGI [13]: 1910 nM
GI50 [14]: 184 nM
TGI [14]: 359 nM
GI50 [15]: 2010 nM
TGI [15]: 4100 nM
GI50 [16]: 296 nM
TGI [16]: 868 nM
GI50 [17]: 1570 nM
TGI [17]: 3160 nM
GI50 [18]: 867 nM
TGI [18]: 2810 nM
GI50 [19]: 310 nM
TGI [19]: 881 nM
GI50 [20]: 741 nM
TGI [20]: 2120 nM
GI50 [21]: 1430 nM
TGI [21]: 3350 nM
GI50 [22]: 1540 nM
TGI [22]: 2990 nM
GI50 [23]: 291 nM
TGI [23]: 861 nM
GI50 [24]: 250 nM
TGI [24]: 707 nM
GI50 [25]: 1570 nM
TGI [25]: 3240 nM
GI50 [26]: 286 nM
TGI [26]: 853 nM
GI50 [27]: 269 nM
TGI [27]: 787 nM
GI50 [28]: 212 nM
TGI [28]: 502 nM
GI50 [29]: 323 nM
TGI [29]: 1120 nM
GI50 [30]: 1530 nM
TGI [30]: 3070 nM
GI50 [31]: 185 nM
TGI [31]: 413 nM
GI50 [32]: 787 nM
TGI [32]: 2290 nM
GI50 [33]: 564 nM
TGI [33]: 1760 nM
GI50 [34]: 211 nM
TGI [34]: 528 nM
GI50 [35]: 1230 nM
TGI [35]: 2830 nM
GI50 [36]: 184 nM
TGI [36]: 368 nM
GI50 [37]: 1840 nM
TGI [37]: 4510 nM
GI50 [38]: 1340 nM
TGI [38]: 2940 nM
GI50 [39]: 1990 nM
TGI [39]: 4640 nM
GI50 [40]: 1090 nM
TGI [40]: 3440 nM
GI50 [41]: 209 nM
TGI [41]: 448 nM
GI50 [42]: 230 nM
TGI [42]: 478 nM
GI50 [43]: 222 nM
TGI [43]: 541 nM
GI50 [44]: 1900 nM
TGI [44]: 4710 nM
GI50 [45]: 622 nM
TGI [45]: 1520 nM
GI50 [46]: 261 nM
TGI [46]: 690 nM
